Test results published in US20180171411A1, “GFRalpha1 AS A BIOMARKER FOR CISPLATIN-INDUCED CHEMORESISTANCE AND METASTASIS” (THE BOARD OF REGENTS OF THE UNIVERSITY OF TEXAS SYSTEM, priority 2015, published 2018).

Assays:
[1] = system: GFRα1-overexpressing MG-63 clone #4; experiment: Colony-forming assay in the presence of cisplatin; assay type: cell-based, human; settings: cisplatin 20 μM 10 days; 3-MA (10 μM), Baf (100 nM), CQ (30 μg/ml)
Excerpt: FIG. 3. […] Scale bar, 20 μm. […] Scale bar, 20 μm. […] Scale bar, 20 μm.

MG-63/GFRα1 tumors = experiment: MG-63/GFRα1 xenograft in BALB/c nude mice; assay type: in vivo; settings: CQ 60 mg/kg, cisplatin 3 mg/kg, once a week
Protocol: FIG. 5. GFRα1-mediated autophagy promotes chemoresistance and tumor growth in vivo. (a) BALB/c nude mice (n =40) were injected with MG-63 cells that were transfected with either control or GFRα1 expressing vector. Tumor volume was measured every 3 or 4 days. Data are shown as mean±SEM. ** p<0.05. (b) BALB/c nude mice (n=20) were injected with MG-63 cells that were transfected with either control or GFRα1 shRNA. Tumor volume was measured every 3 or 4 days. Data are shown as mean±SEM. ** p<0.05. (c) Tumors that were generated from mice injected with MG-63 cells containing GFRα1 expressing vector were directly injected with PBS, CQ, cisplatin, or cisplatin+CQ. Tumor volume was measured every 4 days. Data are shown as mean±SEM. ** p<0.05 vs PBS, CQ, or cisplatin-treated tumors. (d) Left, representative images of immunofluorescence staining of HMGB1 in a section from tumors generated from mice injected with MG-63 cells containing GFRα1 expressing vector and then treated with PBS, CQ, cisplatin, or cisplatin+CQ. Right, quantitative analysis of percentage of cytoplasmic HMGB1-positive cells in HMGB1-positive tumors. The values are represented as a mean±s.d.m. (n=3). ** denotes p<0.05 by t-test. (e) Left, representative images of TUNEL-positive cells in a section from tumors generated from mice injected with MG-63 cells containing GFRα1 expressing vector and then treated with PBS, CQ, cisplatin, or cisplatin+CQ. Right, quantitative analysis of percentage of TUNEL-positive cells in HMGB1-positive tumors. The values are represented as a mean±s.d.m. (n=3). ** denotes p<0.05 by t-test. (0 Survival rate of mice injected with MG-63 cells containing GFRα1 expressing vector and then treated with either cisplatin or cisplatin+CQ. (g) Representative images of immunohistochemical staining of GFRα1 in a section from human osteosarcoma patient before and after cisplatin treatment. (h) Representative images of immunofluorescence staining of GFRα1 and HMGB1 in a section from human osteosarcoma patient before and after cisplatin treatment.
Tumor formation in nude mice. The mice used in this study were 6-week-old female BALB/c nude mice purchased from Orient Bio Inc. (Seongnam, Korea). […] The tumor size was measured with a caliper every 3 or 4 days. […] The tumor size was measured with a caliper every 4 days. […] were calculated from caliper measurements of tumor dimensions in mm using the formula for a prolate ellipsoid: (L×W^2)/2 where L is the longer of the two-measurements.
Statistical analysis. Survival data was analyzed by the Kaplan-Meier and log-rank test with GraphPad Prism v5.04 (GraphPad Software, La Jolla Calif.). Plating efficiency (PE, %)=(Number of colonies counted/Number of cells plated)×100. […] All values are expressed as the mean±standard deviation (SD). […]

[2] = system: Src/AMPK signaling in MG-63 cells; experiment: Immunoblot of Src/AMPK/mTOR signaling; assay type: cell-based, human; settings: then cisplatin 20 μM 24 hr; for LC3-II expression: inhibitor
Protocol: FIG. 4. GFRα1 regulates autophagy by Src/AMPK signaling in osteosarcoma cells. (a-b) Immunoblot analysis of osteosarcoma cell lysates with antibodies specific for GFRα1, p-Src, Src, p-AMPK, AMPK, p-mTOR, mTOR, p-p70 S6Kinase, Beclin 1, HMGB1, LC3, and β-actin. (a) MG-63 and cells were treated with cisplatin (20 μM) for 24 hr. (b) Control and GFRα1-deficient MG-63 cells were treated with cisplatin (20 μM) for 24 hr. (c-e) Immunoblot analysis of osteosarcoma cell lysates with antibodies specific for GFRα1, p-Src, Src, p-AMPK, AMPK, LC3, and β-actin. (c) Control and Src-deficient MG-63 cells were treated with cisplatin (20 μM) for 24 hr. (d) MG-63 cells were cultured in the presence or absence of PP1 (5 μM) and then treated with cisplatin (20 μM) for 24 hr. (e) MG-63 cells were cultured in the presence or absence of Compound C and then treated with cisplatin (20 μM) for 24 hr. (f) Cell viability of MG-63 cells after cisplatin treatment in the presence of PP1. MG-63 cells were cultured with DMSO or PP1 (2, 5 μM) and then treated with cisplatin (20 μM) for 24 hr. Cell viability was measured using the WST-1 assay. The values are represented as a mean±s.d.m. (n=3). ** denotes p<0.05 by t-test. (g) Cell viability of MG-63 cells after cisplatin treatment in the presence of Compound C. MG-63 cells were cultured with DMSO or Compound C (5, 10 μM) and then treated with cisplatin (20 μM) for 24 hr. Cell viability was measured using the WST-1 assay. The values are represented as a mean±s.d.m. (n=3). ** denotes p<0.05 by t-test.
(§1) Immunoblotting. Cells were washed with PBS and lysed in RIPA Buffer (Pierce, Rockford, Ill.). The protein content was determined using a dye-binding microassay (Bio-Rad, Hercules, Calif.), and 10-50 μg protein per lane was electrophoresed on 4-12% SDS polyacrylamide gels. Proteins were blotted onto Hybond ECL membranes (Amersham Pharmacia Biotech, Piscataway, N.J.). Two protein ladders were used for molecular weight determination (GenDEPOT, Barker, Tex.). The blotted proteins were detected using an enhanced chemiluminescence detection system (iNtRON, Seoul, Korea). Data were quantified and analyzed with Image-J software.

[3] = system: GFRα1 expression in MG-63 and U-2 OS cells; experiment: Immunoblot of GFRα1 expression after chemotherapeutic agents; assay type: cell-based, human; settings: doxorubicin 5 μM, cisplatin 20 μM, methotrexate 1 mM, 24 hr
Protocol: FIG. 1. Cisplatin induces GFRα1 expression in osteosarcoma cells. (a-c) Immunoblot analysis of osteosarcoma cell lysates with antibodies specific for GFRα1 and β-actin. (a) MG-63 and U-2 OS cells were treated with doxorubicin (5 μM), cisplatin (20 μM), or methotrexate (1 mM) for 24 hr. Immunoblot analysis of GFRα1 (left) and quantification of GFRα1 expression (right) after treatment of chemotherapeutic agents. (b) MG-63 and U-2 OS cells were treated with different concentrations of cisplatin for 24 hr. (c) MG-63 and U-2 OS cells were treated with cisplatin (20 μM) and collected at the indicated time. (d and e) Quantitative real-time PCR of GFRα1 mRNA expression after cisplatin treatment. Representative images (top) and quantitative analysis (bottom) of GFRα1 mRNA expression. The values are presented as a mean±s.d.m (n=3). ** denotes p<0.05 by t-test. (d) MG-63 and U-2 OS cells were treated with different concentrations of cisplatin for 24 hr. (e) MG-63 and U-2 OS cells were treated with cisplatin (20 μM) and collected at the indicated time.
as §1

[4] = system: GFRα1-deficient MG-63 and U-2 OS cells; experiment: WST-1 cell viability of GFRα1-deficient (siRNA) osteosarcoma cells; assay type: cell-based, human; settings: GFRα1 siRNA 48 h, then agent 24 h
Protocol: FIG. 6. Cell viability of GFRα1-deficient osteosarcoma cells after treatment of chemotherapeutic agents. MG-63 and U-2 OS cells were transfected with either control siRNA or GFRα1 siRNA for 48 h and then treated with different concentrations of doxorubicin, cisplatin, or methotrexate for 24 h. Cell viability was measured using the WST-1 assay. The values are represented as a mean±s.d.m. (n=3). ** denotes P<0.05 by t-test. (a) MG-63 cells. (b) U-2 OS cells.
Small interfering RNA (siRNA)-based Experiments. Human GFRα1 siRNA, Beclin 1 siRNA, HMGB1 siRNA, AMPK siRNA, c-Src siRNA, NFκB p50 siRNA, APE siRNA and Negative (control) siRNA were purchased from Santa Cruz Biotechnology. Cell lines were transiently transfected with siRNA duplexes using Lipofectamine® RNAiMAX (Life Technologies) according to manufacturer's instructions.
Cell viability assays. WST-1 cell viability assay reagent was purchased from Roche. Equal numbers of cells were seeded in triplicate wells in 48-well plates and maintained in growth medium containing 10% FBS). Cells were cultured with PBS, GDNF (50 ng/mL), GDNF (50 ng/ml)+cisplatin (20 μM), or cisplatin (20 μM) in the presence of serum for 24 hr. Cells were also preincubated with inhibitors (3-MA, PP1, Compound C, Baf and CQ) for 1 hr before stimulating with PBS, GDNF, GDNF+cisplatin, or cisplatin. WST-1 reagent was then treated to the cells at the indicated times and incubated for 2 hr at 37° C. Cell viability was determined by measuring the absorbance after adding WST-1. The spectrophotometric absorbance of the samples was measured using an Ultra Multifunctional Microplate Reader (Tecan, Durham, N.C.) at 450 nm. Experiments were done at least in triplicate using separate cultures.

SMILES | LC3-II expression [2] | level of GFRα1 expression [3] | cell proliferation of GFRα1-deficient cells compared to control cells [4] | further results
CCN(CC)CCCC(C)Nc1ccnc2cc(Cl)ccc12 (centres unmarked) [CQ, chloroquine] | – | – | – | number of colonies [1]: effectively reduced; tumor progression (MG-63/GFRα1 tumors): allowed the tumors to survive; tumor volume compared to PBS-treated mice (MG-63/GFRα1 tumors): decreased
Cc1ccc(-c2nn(C(C)(C)C)c3ncnc(N)c23)cc1 [PP1] | decreased | – | – | AMPK phosphoryation ([2]; PP1 5 μM): decreased
c1cc(-c2cnn3cc(-c4ccc(OCCN5CCCCC5)cc4)cnc23)ccn1 [compound C] | decreased | – | – | Src phosphorylation ([2]; Compound C): no effect
COc1cccc2c1C(=O)c1c(O)c3c(c(O)c1C2=O)C[C@@](O)(C(=O)CO)C[C@@H]3O[C@H]1C[C@H](N)[C@H](O)[C@H](C)O1 [doxorubicin] | – | no or little effect | little or no effect | –
CN(Cc1cnc2nc(N)nc(N)c2n1)c1ccc(C(=O)N[C@@H](CCC(=O)O)C(=O)O)cc1 [methotrexate] | – | no or little effect | little or no effect | –
